Assay results from patent US20240391885A1, “FORMS OF LINERIXIBAT” (GLAXOSMITHKLINE INTELLECTUAL PROPERTY (NO. 2) LIMITED, priority 2020, published 2024).
Values after ≈ are worked out from the molar mass of the structure shown.

Key:
Assay type in all cases: physicochemical
[1] = Solubility of linerixibat drug substance over pH 1.2-6.8 at 37±1° C. (Experiment 8a); details: for solubility at 1 h / solubility at 4 h / solubility at 24 h: 37 °C, thermodynamic from solid; for solubility at 1 h: 1-hr timepoint; for solubility at 4 h: 4-hr timepoint; for solubility at 24 h: 24-hr timepoint
Method: The solubility of linerixibat drug substance, in respect of Form I and Form III, was determined over the pH range of 1.2-6.8 at 37±1° C. Eight pH values within this range, including buffers at pH 1.2, 4.5 and 6.8 were evaluated. The therapeutic dose for linerixibat is 40 mg.
• SGF=simulated gastric fluid • BR=Britton Robinson

[2] = Solubility of drug substance samples in biorelevant media and sodium acetate buffer (Experiment 8b); details: for solubility at 1 h / solubility at 4 h / solubility at 24 h: thermodynamic from solid
Excerpt: Solubility data was obtained for drug substance samples of linerixibat Form I, linerixibat Form III, and additionally for a sample of Form I compressed to 100 MPa which therefore contained an amount of Form III, in order to replicate typical forces encountered during tablet manufacture.
The media used for the drug substance samples were biorelevant media likely to be experienced in the stomach and the intestine, namely Simulated Gastric Fluid (SGF) over an increasing pH range (1.6, 2.0 and 4.0) and Fasted State Simulated Intestinal Fluid (FaSSIF) at a pH of 6.5. Solubility data was also obtained in 50 mM sodium acetate buffer pH 4.5.

[3] = Miniaturised shake flask solubility in Britton-Robinson buffers and biorelevant media (Experiment 8c); details: 37° C., 1, 4 and 24 hours; FIG. 25
Method: Solubility of Form I and Form III was also measured in Britton-Robinson buffers (pH 2-8), determined and compared using a standardised miniaturised shake flask method via an automated platform using a development HPLC method for quantification post centrifugation and filtration. Samples were run at 37° C. and performed as 2 replicate preparations for each pH condition and 4 replicate preparations for each biorelevant media condition at 1, 4 and 24 hours.

[4] = Conversion of Form I to Form III under mechanical stress / tablet compression (13C SSNMR, XRPD); details: one manufacturing batch of Form I after the final (agitated) drying step; qualitative assessment by 13C SSNMR and XRPD
Excerpt: Upon investigation, this occurrence was attributed to a combination of a relatively large batch size in a smaller filter drier (agitated drying stage) resulting in the wet material being subjected to greater shear forces during agitation, causing some conversion of Form I to Form III. Conversion of Form I to Form III was also observed during tablet compression process. […] During formulation development, samples of the linerixibat compression blend were compacted in a device to mimic the full-scale tableting process. X-ray powder diffractograms (XRPD) were obtained on these “compacts.” As the compression force was increased, the XRPD pattern changed to give loss of intensity of some peaks and formation of other peaks. This indicated the presence of another solid state form, which was subsequently confirmed as Form III. […] The intensities of Form I and Form III peaks in the ^13C SSNMR spectrum qualitatively indicate similar populations of the two polymorphic forms in the sample of mixture. The ^13C SSNMR data were acquired using the same apparatus and conditions as Example 1e.
^13C SSNMR data for linerixibat tablets, 90 mg of Form I compressed with different forces to achieve three different tensile strengths 1.6 MPa, 2.4 MPa and 3.2 MPa, were collected. The ^13C SSNMR data were acquired using the same apparatus and conditions as Example 1e. […]

[5] = Polymorph screen, relative stability of forms; details: relative to the other forms identified from the form screen
Method: Form I of linerixibat, a non-solvated crystalline form that melts with decomposition at onset temperature about 206° C. and peak temperature about 209° C., was identified as the predominant form of linerixibat from a polymorph screen study. Amorphous linerixibat and Form I were used as input material for polymorph screen experiments. […] Form I was obtained from a variety of screening samples, and the solvents used include water, methanol, ethanol, acetone, acetonitrile and ethyl acetate.

[6] = Britton Robinson buffer, pH 3, aqueous buffer, nominal pH 3.0, BR buffer
[7] = Britton Robinson buffer, pH 3.5, aqueous buffer, nominal pH 3.5, BR buffer
[8] = Britton Robinson buffer, pH 3.8, aqueous buffer, nominal pH 3.8, BR buffer
[9] = Britton Robinson buffer, pH 4, aqueous buffer, nominal pH 4.0, BR buffer
[10] = Britton Robinson buffer, pH 5, aqueous buffer, nominal pH 5.0, BR buffer
[11] = acetate buffer, pH 4.5, aqueous buffer, nominal pH 4.5, Acetate buffer
[12] = phosphate buffer, pH 6.8, aqueous buffer, nominal pH 6.8, Phosphate buffer
[13] = simulated gastric fluid (SGF), pH 1.2, simulated gastric fluid, nominal pH 1.2, SGF

SMILES: CCCC[C@]1(CC)CS(=O)(=O)c2cc(CNC(CC(=O)O)CC(=O)O)c(OC)cc2[C@@H](c2ccccc2)N1 [Form I]
- solubility at 1 h [1, 6]: 178 µg/mL (≈ 326 µM)
- solubility at 4 h [1, 6]: 198 µg/mL (≈ 362 µM)
- solubility at 24 h [1, 6]: 232 µg/mL (≈ 424 µM)
- solubility at 1 h [1, 7]: 99 µg/mL (≈ 181 µM)
- solubility at 4 h [1, 7]: 110 µg/mL (≈ 201 µM)
- solubility at 24 h [1, 7]: 128 µg/mL (≈ 234 µM)
- solubility at 1 h [1, 8]: 104 µg/mL (≈ 190 µM)
- solubility at 4 h [1, 8]: 113 µg/mL (≈ 207 µM)
- solubility at 24 h [1, 8]: 131 µg/mL (≈ 240 µM)
- solubility at 1 h [1, 9]: 118 µg/mL (≈ 216 µM)
- solubility at 4 h [1, 9]: 125 µg/mL (≈ 229 µM)
- solubility at 24 h [1, 9]: 146 µg/mL (≈ 267 µM)
- solubility at 1 h [1, 10]: 393 µg/mL (≈ 719 µM)
- solubility at 4 h [1, 10]: 491 µg/mL (≈ 898 µM)
- solubility at 24 h [1, 10]: 650 µg/mL (≈ 1190 µM)
- solubility at 1 h [1, 11]: 190 µg/mL (≈ 348 µM)
- solubility at 4 h [1, 11]: 214 µg/mL (≈ 391 µM)
- solubility at 24 h [1, 11]: 293 µg/mL (≈ 536 µM)
- solubility classification ([1]; all pHs in the physiological range except close to the solubility minimum (between pH 3.2 and pH 4.2), high solubility = above 0.16 mg/mL (40 mg in 250 mL)): highly soluble
- difference in solubility between Form I and Form III ([1]; pH 1.2-6.8, 37±1° C.): no significant difference
- solubility at 1 h [1, 12]: > 1000 µg/mL
- solubility at 4 h [1, 12]: > 1000 µg/mL
- solubility at 24 h [1, 12]: > 1000 µg/mL
- solubility at 1 h [1, 13]: > 1000 µg/mL
- solubility at 4 h [1, 13]: > 1000 µg/mL
- solubility at 24 h [1, 13]: > 1000 µg/mL
- solubility at 1 h ([2]; 50 mM sodium acetate buffer, pH 4.5, aqueous buffer, 50 mM Sodium Acetate Buffer pH 4.5, 1 Hour): 270 µg/mL (≈ 494 µM)
- solubility at 4 h ([2]; 50 mM sodium acetate buffer, pH 4.5, aqueous buffer, 50 mM Sodium Acetate Buffer pH 4.5, 4 Hours): 280 µg/mL (≈ 512 µM)
- solubility at 24 h ([2]; 50 mM sodium acetate buffer, pH 4.5, aqueous buffer, 50 mM Sodium Acetate Buffer pH 4.5, 24 Hours): 300 µg/mL (≈ 549 µM)
- solubility at 1 h ([2]; Fasted State Simulated Intestinal Fluid (FaSSIF), pH 6.5, fassif, FaSSIF pH 6.5, 1 Hour): 5080 µg/mL (≈ 9290 µM)
- solubility at 4 h ([2]; Fasted State Simulated Intestinal Fluid (FaSSIF), pH 6.5, fassif, FaSSIF pH 6.5, 4 Hours): 5110 µg/mL (≈ 9350 µM)
- solubility at 24 h ([2]; Fasted State Simulated Intestinal Fluid (FaSSIF), pH 6.5, fassif, FaSSIF pH 6.5, 24 Hours): 5310 µg/mL (≈ 9710 µM)
- solubility at 1 h ([2]; Simulated Gastric Fluid (SGF), pH 1.6, simulated gastric fluid, SGF pH 1.6, 1 Hour): 7200 µg/mL (≈ 13200 µM)
- solubility at 4 h ([2]; Simulated Gastric Fluid (SGF), pH 1.6, simulated gastric fluid, SGF pH 1.6, 4 Hours): 7390 µg/mL (≈ 13500 µM)
- solubility at 24 h ([2]; Simulated Gastric Fluid (SGF), pH 1.6, simulated gastric fluid, SGF pH 1.6, 24 Hours): 7910 µg/mL (≈ 14500 µM)
- solubility at 1 h ([2]; Simulated Gastric Fluid (SGF), pH 2, simulated gastric fluid, SGF pH 2.0, 1 Hour): 1490 µg/mL (≈ 2730 µM)
- solubility at 4 h ([2]; Simulated Gastric Fluid (SGF), pH 2, simulated gastric fluid, SGF pH 2.0, 4 Hours): 1530 µg/mL (≈ 2800 µM)
- solubility at 24 h ([2]; Simulated Gastric Fluid (SGF), pH 2, simulated gastric fluid, SGF pH 2.0, 24 Hours): 1620 µg/mL (≈ 2960 µM)
- solubility at 1 h ([2]; Simulated Gastric Fluid (SGF), pH 4, simulated gastric fluid, SGF pH 4.0, 1 Hour): 150 µg/mL (≈ 274 µM)
- solubility at 4 h ([2]; Simulated Gastric Fluid (SGF), pH 4, simulated gastric fluid, SGF pH 4.0, 4 Hours): 150 µg/mL (≈ 274 µM)
- solubility at 24 h ([2]; Simulated Gastric Fluid (SGF), pH 4, simulated gastric fluid, SGF pH 4.0, 24 Hours): 160 µg/mL (≈ 293 µM)
- solubility comparison of the forms ([2]; all investigated physiologically relevant pH values (1.6 to 6.5)): Forms I and III have very similar solubilities at all investigated physiologically
- solubility comparison in biorelevant media [3]: very similar
- Form III content [4]: ≤ 10 % w/w
- relative stability of the form [5]: most stable form
